Laboratory results from patent US5639469A, “Transmucosal delivery system” (Minnesota Mining and Manufacturing Company, priority 1994, dated 1997).
Read-outs that look alike come from different tables or passages of the source. One block for each compound: values may come before it.

Columns and labels:
[1] = In vivo rat model: plasma anti Xa after buccal dosing of gel; parameters: species or system rat (Wistar preferred); conditions: Gel Formulation 11
Description: The in vivo delivery of heparinic anticoagulant from a gel is determined using a rat model.
This method uses rats of 220 to 500 grams in weight. Wistar rats are the preferred strain. The rats are anesthetized with ether and then a 2 cm vertical incision is made first through the skin and then through the underlying muscle. The esophagus is isolated and tied off with a surgical ligature. The incision is closed with a surgical stapler. After surgery the rats are dosed with the gel by syringe administration with half of the total dose in each cheek. The rats are slightly reanesthesized for dosing and blood withdrawal. Blood samples are withdrawn at 0, 1, 2, 3 and 4 hours post dose. Heparinic anticoagulant concentrations in plasma are determined by an enzymatic method measuring anti Xa using a test kit (Stachrom™ Heparin from Diagnostica Stago, 9 rue des Freres Chausson, 92600 Asnieres-sur Seine, France). Results are reported as the number of anti Xa units per mL of plasma.
A formulation was prepared according to the method set forth above in connection with Gel Formulation 1, except that the sodium dodecyl sulfate was eliminated and the penetration enhancers shown in Table 15 below were incorporated at 2, 5 and/or 10 percent by weight based on the total weight of the gel formulation. Low molecular weight heparin (mean molecular weight from 3450 to 4950 daltons with anti Xa of 65 to 144 units/mg, Bioiberica, Barcelona, Spain) was incorporated at concentrations of 10, 25 and 50 mg of heparin per mL of gel. In vivo delivery was determined using the rat model described above. Each rat was dosed with 0.2 mL of gel formulation to provide the dose of heparin shown in Table 15, wherein "n" designates the number of rats studied. The values obtained were used to calculate the promoting effect (P for each formulation. The promoting effect was calculated using the equation given below: [formula] where: Cmax (H) is equal to the maximal anti Xa activity in plasma after heparin administration without enhancer and Cmax (H+E) is equal to the maximal anti Xa activity in plasma after heparin administration with the enhancer. The results are shown in Table 15 below.

Xa = conditions: cited from earlier work
[2] = enhancer 5 wt%, heparin 5 mg/rat

Compound: C[C@H](CCC(=O)O)[C@H]1CC[C@H]2[C@@H]3CC[C@@H]4C[C@H](O)CC[C@]4(C)[C@H]3C[C@H](O)[C@]12C [Sodium deoxycholate]
promoting effect (P %) ([1]; enhancer 2 wt%, heparin 5 mg/rat): +117% | promoting effect (P %) [1, 2]: +122%

promoting effect (P %) ([1]; enhancer 10 wt%, heparin 10 mg/rat): +142%
Compound: CCCCCCCCCCCCCCCC(=O)OC(CC(=O)O)C[N+](C)(C)C (racemic) [Palmitoyl DL carnitine chloride]

Compound: Low molecular weight heparin
anti Xa (Xa; mean molecular weight 3450 daltons, Bioiberica): 138 units/mg | anti Xa (Xa; mean molecular weight 5300 daltons, Bioiberica): 144 units/mg | anti Xa (Xa; molecular weight 3949, Bioiberica): 113 units/mg

Compound: O=C1CCCN1 [Pyrrolidone]
promoting effect (P %) [1, 2]: -31%

Compound: C[C@H](CCC(=O)NCCC[N+](C)(C)CCCS(=O)(=O)[O-])[C@H]1CC[C@H]2[C@@H]3[C@H](O)C[C@@H]4C[C@H](O)CC[C@]4(C)[C@H]3C[C@H](O)[C@]12C [CHAPS]
promoting effect (P %) [1, 2]: +2%

Compound: CCCCCCCCCCCCOS(=O)(=O)[O-].[Na+] [Sodium dodecyl sulfate]
promoting effect (P %) [1, 2]: +189%
